What is called IC50 is the concentration that inhibits the measured activity by half. A word on the Ki: it is the dissociation constant of the complex between target and ligand, obtained from inhibition or displacement. For orientation: Kd means the free concentration of one partner at which half of the binding sites on the other are occupied at equilibrium, for simple one-to-one binding.

Assay [1] addresses T1, human Smoothened receptor (Homo sapiens, UniProt Q99835).
T1 construct: expressed in transfected cells
The assay is described as follows: Inhibition of binding of 3H-(7d) to membranes of HEK-hSmo cells. Particulars: HEK-hSmo membranes. On the procedure:
(§1) The binding test is carried out on membranes enriched with Smoothened receptor. Cells of the HEK-hSmo line were used for preparing these membranes. The cells are washed and recovered in iced PBS. After centrifugation at 100 g for 7 minutes at 4° C., the pellet is taken up in 10 times its volume of an iced buffer A (50 mM HEPES, pH 7.4, 1 mM EDTA) with addition of 10 μl of a cocktail of protease inhibitors (PEAK, Sigma) per ml of buffer, then it is homogenized using a Polytron grinding mill. After centrifugation at 500 g for 30 minutes at 4° C., which makes it possible to remove the nuclei from the cells, the supernatant is centrifuged again at 48 000 g for 45 min at 4° C. The pellet is taken up in 2 ml of buffer A with PEAK added, then the suspension is homogenized using a glass conical grinding mill and is passed through a 23 G needle. Finally, aliquots are placed in Eppendorf tubes and stored at −80° C. The concentration of total protein in the preparation is determined by Lowry's method using BSA for preparing the standard range.
The membranes are resuspended in a buffer (50 mM HEPES and 3 mM MgCl2) containing 0.2% of BSA. The tests of binding of ^3H-(7d) are carried out in polypropylene tubes. The membranes (2 μg of proteins) are incubated with the ^3H-(7d) in the presence or absence of the cold test compounds for 3 hours at 37° C. in a final volume of 400 μl. Incubation is stopped by immersing the tubes in iced water followed by rapid filtration (Brandel) through a glass fiber filtration membrane (GF/C) treated beforehand with 0.3% of polyethylenimine, which can reduce the nonspecific binding of the ^3H-(7d) to the filtration membrane. The radioactivity retained on the filter is measured in the presence of 3 ml of scintillating agent in a liquid scintillation counter.
In this experiment, the cold ligand competes with the radioactive ligand for binding to the receptor, and the affinity (Ki) of each cold ligand for the receptor can be analyzed based on the IC50 values deduced from the inhibition curves.

For assay [2], the target named is T1, human Smoothened receptor. The experiment in a line: Saturation of binding of 3H-(7d) to membranes of HEK-hSmo cells. Particulars: read-out: Kd of specific binding. On the procedure:
as §1, with “range. This concentration is 10.9 mg/ml.” for “range.”
The membranes are resuspended in a buffer (50 mM HEPES and 3 mM MgCl2) containing 0.2% of BSA. The tests of binding of ^3H-(7d) are carried out in polypropylene tubes. […] The radioactivity retained on the filter is measured in the presence of 3 ml of scintillating agent in a liquid scintillation counter. […]

T1 sequence (Q99835 28-787): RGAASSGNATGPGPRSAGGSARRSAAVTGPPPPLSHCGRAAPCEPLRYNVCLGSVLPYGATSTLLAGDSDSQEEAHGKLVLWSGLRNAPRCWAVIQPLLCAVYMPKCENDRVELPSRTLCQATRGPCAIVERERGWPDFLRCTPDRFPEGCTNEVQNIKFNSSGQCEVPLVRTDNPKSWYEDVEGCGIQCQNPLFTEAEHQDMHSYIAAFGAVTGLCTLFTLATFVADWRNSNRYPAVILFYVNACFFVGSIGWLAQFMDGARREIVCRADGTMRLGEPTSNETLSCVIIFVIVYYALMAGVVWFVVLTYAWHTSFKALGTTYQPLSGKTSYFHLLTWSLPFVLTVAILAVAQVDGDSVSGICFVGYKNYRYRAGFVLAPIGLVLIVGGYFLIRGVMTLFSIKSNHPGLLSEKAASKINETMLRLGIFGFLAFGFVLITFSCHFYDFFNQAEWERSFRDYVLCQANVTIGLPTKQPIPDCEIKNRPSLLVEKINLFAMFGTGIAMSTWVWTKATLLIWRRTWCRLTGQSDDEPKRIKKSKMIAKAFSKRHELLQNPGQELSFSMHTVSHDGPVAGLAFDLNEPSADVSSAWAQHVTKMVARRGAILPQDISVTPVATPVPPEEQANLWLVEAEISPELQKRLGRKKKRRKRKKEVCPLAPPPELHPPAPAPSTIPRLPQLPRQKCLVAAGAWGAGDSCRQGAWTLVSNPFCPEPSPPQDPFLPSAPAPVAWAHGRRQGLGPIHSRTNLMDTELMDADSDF

Take `COc1cc(C(=O)NC(=N)Nc2ccc(C)c(NC(=O)c3ccc(CCc4ccccc4)cc3)c2)cc(OC)c1OC.Cl` [Compound 7d, 3,4,5-trimethoxy-N—(N-(4-methyl-3-(4-phenethylbenzamido)phenyl)carbamimidoyl)benzamide hydrochloride]: the IC50 in assay [1] (0.35 nM 3H-(7d), 3 hours at 37° C., read-out: IC50 ± SEM, binding of compound 3H-(7d)) came out at 1.5 nM. Moreover, in assay [1] (calculated from IC50, read-out: Ki ± SEM, binding of compound 3H-(7d)), the Ki is 0.7 ± 0.1 nM. For the same compound, the Kd in assay [2] worked out at 0.3 nM.

The record behind these values is US8981149B2, “Compounds modulating the hedgehog protein signaling pathway, marked forms thereof, and applications” (Centre National De La Recherche Scientifique, priority 2011, dated 2015).
